This note sets out measurements from patent US10780090B2, “Heteroaryl compounds useful as inhibitors of SUMO activating enzyme” (Millennium Pharmaceuticals, Inc., priority 2014, dated 2020).

pIC50: −log10 of the molar value.

This assay deals with recombinant human SAE enzyme (Homo sapiens (Human), UniProt Q9UBT2). In words: SAE HTRF enzyme assay. Format: biochemical. Particulars: for Percent Inhibition: Concentration 0.111 μM; for pIC50: class symbols A/B/C. The protocol: Example 215: SAE HTRF enzyme assay
The SAE enzymatic reaction totals 50 μl and contains 50 mM HEPES Hemisodium (pH 7.5), 0.05% BSA, 5 mM MgCl2, 0.5 μM ATP, 250 μM GSH, 0.01 μM Ubc9-GST, 0.125 μM Sumo-Flag and 0.11 nM recombinant human SAE enzyme. The enzymatic reaction mixture, with and without inhibitor, Is incubated at 24° C. for 105 min in a 384-well plate before termination with […] of Stop/Detection buffer (0.1M HEPES Hemisodium pH 7.5, 0.05% Tween20, 20 mM EDTA, 410 mM KF, 0.53 nM Europium-Cryptate labeled monoclonal anti-Flag M2 Antibody (CisBio International) and 8.125 μg/ml PHYCOLINK goat anti-GST allophycocyanin (XL-APC) antibody (Prozyme)). After incubation for 2 hours at 24° C., quantification of FRET is performed on the Pherostar™ (BMG Labtech). Percentage inhibition values at a single concentration or enzyme inhibition (IC50) values are determined from those curves. One skilled in the art will appreciate that the values generated either as percentage inhibition at a single concentration or IC50 values are subject to experimental variation.
For orientation: Time-resolved FRET reads energy transfer from a long-lived donor to a nearby acceptor.

recombinant human SAE enzyme, sequence (Q9UBT2 whole entry): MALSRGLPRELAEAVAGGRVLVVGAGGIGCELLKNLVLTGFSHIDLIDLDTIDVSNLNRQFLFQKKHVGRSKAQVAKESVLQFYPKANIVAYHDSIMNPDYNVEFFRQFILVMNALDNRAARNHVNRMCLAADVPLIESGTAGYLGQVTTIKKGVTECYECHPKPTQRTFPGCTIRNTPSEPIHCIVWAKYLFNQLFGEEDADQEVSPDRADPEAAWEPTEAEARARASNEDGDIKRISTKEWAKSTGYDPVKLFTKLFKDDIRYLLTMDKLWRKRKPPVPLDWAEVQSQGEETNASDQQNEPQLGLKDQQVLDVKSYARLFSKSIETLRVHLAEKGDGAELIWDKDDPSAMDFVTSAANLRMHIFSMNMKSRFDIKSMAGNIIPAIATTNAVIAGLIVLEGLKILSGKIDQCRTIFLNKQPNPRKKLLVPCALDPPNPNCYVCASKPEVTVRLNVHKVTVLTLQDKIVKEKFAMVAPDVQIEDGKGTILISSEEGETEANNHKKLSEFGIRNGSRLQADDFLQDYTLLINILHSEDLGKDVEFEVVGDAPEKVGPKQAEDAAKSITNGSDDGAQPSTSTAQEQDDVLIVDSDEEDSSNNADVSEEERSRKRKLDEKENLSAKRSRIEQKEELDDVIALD
recombinant human SAE enzyme, sequence (Q9UBE0 whole entry partner): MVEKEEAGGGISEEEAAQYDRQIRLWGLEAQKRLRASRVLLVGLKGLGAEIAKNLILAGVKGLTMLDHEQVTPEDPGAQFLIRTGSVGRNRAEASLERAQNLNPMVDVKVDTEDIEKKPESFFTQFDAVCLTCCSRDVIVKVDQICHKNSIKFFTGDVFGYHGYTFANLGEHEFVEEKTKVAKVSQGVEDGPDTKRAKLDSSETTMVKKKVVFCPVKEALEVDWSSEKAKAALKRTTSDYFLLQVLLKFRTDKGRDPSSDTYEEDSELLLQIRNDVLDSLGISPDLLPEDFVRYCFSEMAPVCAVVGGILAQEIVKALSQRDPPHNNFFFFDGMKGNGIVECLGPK

Take `NC(c1cccc(Cl)n1)c1cc(C(=O)c2cncnc2NC2CC(O)C(COS(N)(=O)=O)C2)sc1Cl` (mixture of isomers) [I-25, [(1R,2S,4R)-4-{[5-({4-[(S)-amino(6-chloropyridin-2-yl)methyl]-5-chloro-2-thienyl}carbonyl)pyrimidin-4-yl]amino}-2-hydroxycyclopentyl]methyl sulfamate and [(1R,2S,4R)-4-{[5-({4-[(R)-amino(6-chloropyridin-2-yl)methyl]-5-chloro-2-thienyl}carbonyl)pyrimidin-4-yl]amino}-2-hydroxycyclopentyl]methyl sulfamate]: the “Percent Inhibition” value is listed as 98 and the pIC50 (commonly the IC50 on a negative log10 scale, so that one unit is a factor of ten) was above 8.00.
Taken in the same sequence, the figures for `Cc1sc(C(=O)c2cncnc2N[C@@H]2C[C@H](COS(N)(=O)=O)[C@@H](O)C2)cc1[S@+]([O-])c1cccc(Cl)c1.Cc1sc(C(=O)c2cncnc2N[C@@H]2C[C@H](COS(N)(=O)=O)[C@@H](O)C2)cc1[S@@+]([O-])c1cccc(Cl)c1` (mixture of isomers) [I-28, [(1R,2S,4R)-4-{[5-({4-[(R)-(3-chlorophenyl)sulfinyl]-5-methyl-2-thienyl}carbonyl)pyrimidin-4-yl]amino}-2-hydroxycyclopentyl]methyl sulfamate and [(1R,2S,4R)-4-{[5-({4-[(S)-(3-chlorophenyl)sulfinyl]-5-methyl-2-thienyl}carbonyl)pyrimidin-4-yl]amino}-2-hydroxycyclopentyl]methyl sulfamate] were 98 and above 8.00.
In the same order, the values of `NS(=O)(=O)OCC1CC(Nc2ncncc2C(=O)c2cc(C(O)c3cccc(Cl)n3)cs2)CC1O` (mixture of isomers) [I-29, [(1R,2S,4R)-4-({5-[{4-[(S)-(6-Chloropyridin-2-yl)(hydroxy)methyl]-2-thienyl}carbonyl)pyrimidin-4-yl]amino}-2-hydroxycyclopentyl]methyl sulfamate and [(1R,2S,4R)-4-{[5-({4-[(R)-(6-Chloropyridin-2-yl)(hydroxy)methyl]-2-thienyl}carbonyl)pyrimidin-4-yl]amino}-2-hydroxycyclopentyl]methyl sulfamate] are 100 and above 8.00.
Taken in the same sequence, the figures for `CC(O)(c1cccc(Cl)c1)c1coc(C(=O)c2cncnc2NC2CC(O)C(COS(N)(=O)=O)C2)c1` (mixture of isomers) [I-30, {(1R,2S,4R)-4-[(5-{4-[(1S)-1-(3-chlorophenyl)-1-hydroxyethyl]-2-furoyl}pyrimidin-4-yl)amino]-2-hydroxycyclopentyl}methyl sulfamate and {(1R,2S,4R)-4-[(5-{4-[(1R)-1-(3-chlorophenyl)-1-hydroxyethyl]-2-furoyl}pyrimidin-4-yl)amino]-2-hydroxycyclopentyl}methyl sulfamate] were 98 and above 8.00.
Turning to `NS(=O)(=O)OC[C@H]1C[C@@H](Nc2ncncc2C(=O)c2cc([C@@]3(c4ccccc4)CCCO3)cs2)C[C@@H]1O` (mixture of isomers) [I-32, [(1R,2S,4R)-2-hydroxy-4-{[5-({4-[(2S)-2-phenyltetrahydrofuran-2-yl]-2-thienyl}carbonyl)pyrimidin-4-yl]amino}cyclopentyl]methyl sulfamate and [(1R,2S,4R)-2-hydroxy-4-{[5-({4-[(2R)-2-phenyltetrahydrofuran-2-yl]-2-thienyl}carbonyl)pyrimidin-4-yl]amino}cyclopentyl]methyl sulfamate], the “Percent Inhibition” value came out at 98 and the pIC50 is above 8.00.
Taken in the same sequence, the figures for `N[C@H](c1cccc(Cl)c1)c1csc(C(=O)c2cncnc2N[C@@H]2C[C@H](COS(N)(=O)=O)[C@@H](O)C2)c1` (mixture of isomers) [I-36, [(1R,2S,4R)-4-{[5-({4-[(R)-amino(3-chlorophenyl)methyl]-2-thienyl}carbonyl)pyrimidin-4-yl]amino}-2-hydroxycyclopentyl]methyl sulfamate and [(1R,2S,4R)-4-{[5-({4-[(S)-amino(3-chlorophenyl)methyl]-2-thienyl}carbonyl)pyrimidin-4-yl]amino}-2-hydroxycyclopentyl]methyl sulfamate] were 100 and above 8.00.
In the same order, the values of `NS(=O)(=O)OC[C@H]1C[C@@H](Nc2ncncc2C(=O)c2cc([C@@]3(c4cccc(Cl)c4)CCCN3)cs2)C[C@@H]1O` (mixture of isomers) [I-38, [(1R,2S,4R)-4-{[5-({4-[(2S)-2-(3-chlorophenyl)pyrrolidin-2-yl]-2-thienyl}carbonyl)pyrimidin-4-yl]amino}-2-hydroxycyclopentyl]methyl sulfamate and [(1R,2S,4R)-4-{[5-({4-[(2R)-2-(3-chlorophenyl)pyrrolidin-2-yl]-2-thienyl}carbonyl)pyrimidin-4-yl]amino}-2-hydroxycyclopentyl]methyl sulfamate] are 101 and above 8.00.
Taken in the same sequence, the figures for `NS(=O)(=O)OC[C@H]1C[C@@H](Nc2ncncc2C(=O)c2cc([C@H](O)c3cccc(Cl)c3F)c(Cl)s2)C[C@@H]1O` (mixture of isomers) [I-40, [(1R,2S,4R)-4-{[5-({5-chloro-4-[(R)-(3-chloro-2-fluorophenyl)(hydroxy)methyl]-2-thienyl}carbonyl)pyrimidin-4-yl]amino}-2-hydroxycyclopentyl]methyl sulfamate and [(1R,2S,4R)-4-{[5-({5-chloro-4-[(S)-(3-chloro-2-fluorophenyl)(hydroxy)methyl]-2-thienyl}carbonyl)pyrimidin-4-yl]amino}-2-hydroxycyclopentyl]methyl sulfamate] were 96 and above 8.00.
As for `NS(=O)(=O)OC[C@H]1C[C@@H](Nc2ncncc2C(=O)c2cc(Cc3cccc(Cl)c3)c([C@@H]3CCCO3)s2)C[C@@H]1O` (mixture of isomers) [I-41, [(1R,2S,4R)-4-{[5-({4-(3-chlorobenzyl)-5-[(2S)-tetrahydrofuran-2-yl]-2-thienyl}carbonyl)pyrimidin-4-yl]amino}-2-hydroxycyclopentyl]methyl sulfamate and [(1R,2S,4R)-4-{[5-({4-(3-chlorobenzyl)-5-[(2R)-tetrahydrofuran-2-yl]-2-thienyl}carbonyl)pyrimidin-4-yl]amino}-2-hydroxycyclopentyl]methyl sulfamate], the “Percent Inhibition” value stood at 99 and the pIC50 was above 8.00.
Taken in the same sequence, the figures for `NS(=O)(=O)OC[C@H]1C[C@@H](Nc2ncncc2C(=O)c2cc([C@@H](O)c3cccc(Cl)c3)co2)C[C@@H]1O.NS(=O)(=O)OC[C@H]1C[C@@H](Nc2ncncc2C(=O)c2cc([C@H](O)c3cccc(Cl)c3)co2)C[C@@H]1O` (mixture of isomers) [I-42, {(1R,2S,4R)-4-[(5-{4-[(R)-(3-chlorophenyl)(hydroxy)methyl]-2-furoyl}pyrimidin-4-yl)amino]-2-hydroxycyclopentyl}methyl sulfamate and {(1R,2S,4R)-4-[(5-{4-[(S)-(3-chlorophenyl)(hydroxy)methyl]-2-furoyl}pyrimidin-4-yl)amino]-2-hydroxycyclopentyl}methyl sulfamate] were 98 and above 8.00.
In the same order, the values of `CN[C@H](c1cccc(Cl)c1)c1csc(C(=O)c2cncnc2N[C@@H]2C[C@H](COS(N)(=O)=O)[C@@H](O)C2)c1` (mixture of isomers) [I-47, [(1R,2S,4R)-4-{[5-({4-[(R)-(3-chlorophenyl)(methylamino)methyl]-2-thienyl}carbonyl)pyrimidin-4-yl]amino}-2-hydroxycyclopentyl]methyl sulfamate and [(1R,2S,4R)-4-{[5-({4-[(S)-(3-chlorophenyl)(methylamino)methyl]-2-thienyl}carbonyl)pyrimidin-4-yl]amino}-2-hydroxycyclopentyl]methyl sulfamate] are 97 and above 8.00.
Regarding `NS(=O)(=O)OCC1CC(Nc2ncncc2C(=O)c2cc(C(O)(CCO)c3cccc(Cl)c3)c(Cl)s2)CC1O` (mixture of isomers) [I-49, [(1R,2S,4R)-4-{[5-({5-Chloro-4-[(1S)-1-(3-chlorophenyl)-1,3-dihydroxypropyl]-2-thienyl}carbonyl)pyrimidin-4-yl]amino}-2-hydroxycyclopentyl]methyl sulfamate and [(1R,2S,4R)-4 {[5-({5-Chloro-4[(1R)-1-(3-chlorophenyl)-1,3-dihydroxypropyl]-2-thienyl}carbonyl)pyrimidin-4-yl]amino}-2-hydroxycyclopentyl]methyl sulfamate], the “Percent Inhibition” value is 98 and the pIC50 is above 8.00.
In the same order, the values of `NS(=O)(=O)OCC1CC(Nc2ncncc2C(=O)c2cc(C(O)(c3cccc(Cl)c3)C3CC3)cs2)CC1O` (mixture of isomers) [I-50, [(1R,2S,4R)-4-{[5-({4-[(S)-(3-chlorophenyl)(cyclopropyl)hydroxymethyl]-2-thienyl}carbonyl)pyrimidin-4-yl]amino}-2-hydroxycyclopentyl]methyl sulfamate and [(1R,2S,4R)-4-{[5-({4-[(R)-(3-chlorophenyl)(cyclopropyl)hydroxymethyl]-2-thienyl}carbonyl)pyrimidin-4-yl]amino}-2-hydroxycyclopentyl]methyl sulfamate] are 99 and above 8.00.
